Experimental findings from patent US20220204473A1, “COMPOUND AS IRAK INHIBITOR” (SHANGHAI MEIYUE BIOTECH DEVELOPMENT CO., LTD., priority 2018, published 2022) are described below.

One data set has as its target T1, CYP2C9 (Homo sapiens, UniProt P11712).
T1 construct: tissue Corning (USA); host or cells: mixed human liver microsomes
Kind of data set: CYP450 inhibition in human liver microsomes, CYP2C9. The class given is in vitro ADME. Conditions: human liver microsomes, probe diclofenac; read-out: IC50, subtype 2C9. As for the experimental part: This study was intended to investigate the inhibitory effect of the test compounds on five major CYP450 enzyme subtypes CYP1A2, 2C9, 2C19, 2D6 and 3A4 in human liver microsomes. The mixed human liver microsomes used in this assay were purchased from Corning (USA). The test compounds were co-incubated at 7 concentrations with human liver microsomes and five probe substrates (phenacetin for CYP1a2, diclofenac for CYP2C9, mephenytoin for CYP2C19, dextromethorphan for CYP2D6, midazolam for CYP3A4-M, mixed). The reaction was initiated by adding coenzyme NADPH, and terminated by adding acetonitrile containing internal standard. After the proteins were precipitated, the supernatant was centrifuged. The characteristic metabolites in the supernatant (acetaminophen for CYP1A2, 4-hydroxydiclofenac for CYP2C9, 4-hydroxymephenytoin for CYP2C19, dextrorphan for CYP2D6, 1-hydroxymidazolam for CYP3A4-M) were analyzed by LC-MS/MS. The influence of the test compounds on production of the characteristic metabolites was finally analyzed on the basis of the data obtained. A selective inhibitor (ketoconazole for CYP3A4-M) was used as positive control. All samples were tested in duplicate.

Data set [1] has as its system Salmonella typhimurium TA98 and TA100. Kind of data set: Mini-Ames assay in Salmonella typhimurium. Conditions: TA98 and TA100, with or without S9 mixture.
Experimental: S9 homogenate: β-napthoflavone and phenobarbital induced rat liver microsome homogenate S9 fraction was used as the metabolic activation system for this assay. S9 was purchased from CHI Scientific, Inc. and stored in a freezer at −75° C. before use.
S9 mixture and mock mixture: S9 was quickly thawed to prepare a liquid mixture before the assay. 0.2 M PBS phosphate buffer (pH 7.4) was used as the mock mixture.
The overnight bacterial cultures were prepared from a stock of the strains. 80 μL of the stock was added to 20 mL of broth. For strains TA98 and TA100, 62.5 μL of ampicillin at a concentration of 0.8% were added per 10 mL of broth #2. The inoculated broth was then incubated on a thermostatic shaker overnight at 37° C. with a rotation speed of 160±10 rpm. The overnight cultures over the target absorbance were stored at 2-8° C. before use. The overnight cultures were used for genotyping and mutation tests.
The experimental system was exposed to the test compounds on plates in plate incorporation assay (Ames et al., 1975; N. Flamand et al., 2000).
Data set [2] deals with T2, hERG potassium ion channel (Homo sapiens, UniProt Q12809).
T2 construct: expressed in transfected cells; host or cells: HEK-293
T2 sequence (Q12809 whole entry): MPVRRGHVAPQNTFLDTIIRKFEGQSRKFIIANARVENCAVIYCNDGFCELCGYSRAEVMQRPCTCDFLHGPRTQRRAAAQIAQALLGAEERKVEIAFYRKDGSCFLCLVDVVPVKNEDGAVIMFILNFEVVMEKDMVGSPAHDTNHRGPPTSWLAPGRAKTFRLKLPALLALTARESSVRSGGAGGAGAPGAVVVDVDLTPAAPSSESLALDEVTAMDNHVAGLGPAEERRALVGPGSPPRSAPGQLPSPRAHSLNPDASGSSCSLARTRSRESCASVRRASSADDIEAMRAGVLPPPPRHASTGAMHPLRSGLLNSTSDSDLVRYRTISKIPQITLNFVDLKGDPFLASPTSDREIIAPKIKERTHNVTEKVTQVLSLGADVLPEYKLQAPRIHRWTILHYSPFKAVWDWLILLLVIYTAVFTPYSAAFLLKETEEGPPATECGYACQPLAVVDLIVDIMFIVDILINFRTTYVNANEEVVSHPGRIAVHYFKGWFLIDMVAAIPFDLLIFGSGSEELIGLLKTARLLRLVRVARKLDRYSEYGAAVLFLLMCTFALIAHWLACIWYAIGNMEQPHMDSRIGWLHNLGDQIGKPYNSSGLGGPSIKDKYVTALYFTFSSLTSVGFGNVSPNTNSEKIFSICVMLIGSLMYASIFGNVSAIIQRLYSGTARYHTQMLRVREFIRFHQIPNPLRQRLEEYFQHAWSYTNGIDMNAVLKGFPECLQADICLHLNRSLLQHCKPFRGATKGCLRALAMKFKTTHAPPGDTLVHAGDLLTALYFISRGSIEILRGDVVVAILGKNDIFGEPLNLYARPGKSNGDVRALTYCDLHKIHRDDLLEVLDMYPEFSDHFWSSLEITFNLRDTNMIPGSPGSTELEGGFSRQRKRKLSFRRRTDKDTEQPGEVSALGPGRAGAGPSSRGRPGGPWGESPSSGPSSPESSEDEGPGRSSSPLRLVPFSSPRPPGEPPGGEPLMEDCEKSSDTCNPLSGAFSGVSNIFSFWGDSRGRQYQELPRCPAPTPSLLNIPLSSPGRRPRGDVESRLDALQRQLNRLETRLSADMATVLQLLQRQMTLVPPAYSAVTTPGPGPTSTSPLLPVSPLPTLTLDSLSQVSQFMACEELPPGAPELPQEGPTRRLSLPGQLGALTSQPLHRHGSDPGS
Kind of data set: hERG whole-cell patch clamp in HEK-293 cells. The class given is cell-based. The note with it: HEK-293 cells stably expressing hERG, pH 7.4, inhibition for hERG at 30 μM concentration. The protocol: This study evaluated the cardiac safety of the compounds according to the present disclosure, and an HEK-293 cell line stably expressing hERG potassium ion channel was used for detection.
Procedures: Test compound stocks were diluted in DMSO into 0.3 mM, 1 mM, and 3 mM dilutions respectively. […] The working solutions of the test compounds were ultrasonically treated for 20 min.
Patch clamping: Under an inverted microscope, recording electrodes were controlled by micromanipulator to contact with the cell. A negative voltage was applied to create a G-omega shaped connection. After forming the G-omega shaped connection, a rapid capacitance compensation was given. Under the continuous negative voltage, the cell membrane was ruptured to form a whole-cell recording configuration. In the whole-cell recording configuration, slow capacitance compensation was given, and the values of membrane capacitance and series resistance were recorded.
Voltage stimulation scheme for cellular hERG potassium current: The cell membrane clamping voltage was −80 mV; the voltage was first elevated from −80 mV to +30 mV, held for 2.5 sec, and rapidly raised to and held at −50 mV for 4 sec, thus exciting the hERG channel tail current. Data acquisition was performed every 10 sec. −50 mV was used for drain current detection.
The cover glasses planted with cells were placed in the recording chamber of an inverted microscope. Negative control and test compounds flowed through the recording chamber in an ascending order of concentration by gravity perfusion to quickly act on the cells. During the recording, the extracellular buffer was continuously circulated by a vacuum pump. The current detected in a cell in the negative control was used as the background for the cell. Each concentration was allowed to act for 5 min or until the current was stabilized. All experiments were performed at room temperature.
The current of each concentration was normalized first
and then the inhibition rate was calculated
Basic statistics were calculated for each concentration, including mean, standard deviation (SD), standard error (SE), and replicates (n). The dose-dependent curve was fitted with the following equation and the half maximal inhibitory concentration (IC50) of the test compounds was calculated:
wherein C represents the test compound concentration, IC50 represents the half maximal inhibitory concentration, and h represents the Hill coefficient. Curve fitting and calculation of IC50 were done by GraphPad Prism 5.0 software.

The nature of data set [3]: PK assay in rat (intravenous injection and oral gavage). The data set is classed as in vivo. Conditions: plasma, male SD rat; for Cmax: read-out: Peak concentration Cmax; for AUC(0-t): read-out: Area under curve AUC0-t; for AUC(0-inf): read-out: Area under curve AUC0-∞; for MRT: read-out: Average retention time MRT; for clearance: read-out: Clearance CL; for half-life: read-out: Half life t1/2 (converted); for Vd: read-out: Volume of distribution at steady state VZ; for bioavailability: read-out: Bioavailability F; for Tmax: read-out: Time to peak tmax. As for the experimental part: The rats used for pharmacokinetic study in the example were male SPF-grade SD rats (B&K Universal, Shanghai).
Route of administration: a single dose by oral gavage or intravenous injection
Sampling points: 0.083 h, 0.25 h, 0.5 h, 1 h, 2 h, 4 h, 6 h, 8 h and 24 h after administration
Sample processing: 0.2 mL of venous blood was collected, and let stand on ice before centrifugation to separate plasma (centrifugation conditions: 8000 rpm, 6 min, 4° C.). The separated plasma was stored at −80° C. before analysis.
Internal standard working solution: An appropriate amount of tolbutamide internal standard stock solution at 645,000 ng/mL was added into a volumetric flask, and was diluted to the volume with methanol. The solution was well mixed to give an internal standard working solution with a concentration of 50 ng/mL.
Sample pretreatment: 50 μL of plasma was added into a 1.5-mL centrifuge tube, and added with 250 μL of internal standard solution (methanol of the same volume for the blank control). The solution was well mixed by vortex, and centrifuged for 5 min at 14000 rpm. 200 μL of the supernatant was transferred into a 96-well sample feeding plate, and loaded onto a LC-MS/MS system.
Column: ACQUITY UPLC BEH C18 1.7 μm (50 mm×2.10 mm)
Mobile phase: A: 0.1% aqueous formic acid; B: 0.1% formic acid in acetonitrile
The data processing system was Analyst software (Applied Biosystems, USA, ver 1.5.5).

Where [4] appears, read: 1 mg/kg, intravenous injection, 1 mpk, 5% DMSO + 15% Solutol + 80% Saline.
[5] abbreviates: 1 mg/kg, intravenous injection, 1 mpk.
Setting [6] is: 5 mg/kg, oral administration, 5 mpk, 15% solutol HS15 + 85% PBS.
The mark [7] stands for this setting: 2 mg/kg, oral administration, 2 mpk, 5% DMSO + 15% Solutol + 80% Saline.

Read-outs that look alike come from different tables or passages of the source. A value given as a limit tells only on which side of the number the result lay.

T1 sequence (P11712 whole entry): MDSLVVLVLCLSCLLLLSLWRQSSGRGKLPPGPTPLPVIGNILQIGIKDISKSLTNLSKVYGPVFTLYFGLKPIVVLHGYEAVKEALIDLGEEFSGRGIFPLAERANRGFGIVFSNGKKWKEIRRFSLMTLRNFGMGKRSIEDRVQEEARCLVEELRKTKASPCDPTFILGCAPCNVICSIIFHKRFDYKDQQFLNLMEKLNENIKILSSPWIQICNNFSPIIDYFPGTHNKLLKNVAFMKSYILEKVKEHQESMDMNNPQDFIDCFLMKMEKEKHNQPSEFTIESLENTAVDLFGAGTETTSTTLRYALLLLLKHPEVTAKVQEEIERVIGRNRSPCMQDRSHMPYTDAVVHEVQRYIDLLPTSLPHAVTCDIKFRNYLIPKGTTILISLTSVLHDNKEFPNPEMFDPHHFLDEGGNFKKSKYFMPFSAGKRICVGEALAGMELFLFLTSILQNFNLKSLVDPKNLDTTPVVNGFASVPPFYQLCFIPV

Regarding `CC(C)(O)c1cc2nn([C@H]3CC[C@](C)(O)CC3)cc2cc1NC(=O)c1cccc(C(C)(F)F)n1` [MY-004-165], the IC50 on CYP2C9 is 20.9 µM.
Regarding `COc1cc2nn([C@H]3CC[C@H](O)CC3)cc2cc1NC(=O)c1cccc(C(F)(F)F)n1` [MY-004-127-1], the IC50 on CYP2C9 is above 30 µM. The Mini-Ames result in data set [1] is listed as “negative”. Besides, the inhibition at 5 min, 30 µM in data set [2] stood at 11.6%. In data set [3] (setting [4]), the Cmax was 1420 ng/mL. In data set [3] (setting [5]), the AUC(0-t) came out at 5530 ng·h/mL, the AUC(0-inf) was determined as 5880 ng·h/mL, the MRT came to 7.54 h and the clearance amounted to 2.84 mL/min/kg. Further, in data set [3] (setting [5]), the half-life is 6.29 h and the Vd came out at 1.55 L/kg. Besides, in data set [3] (setting [6]), the AUC(0-t) amounted to 18400 ng·h/mL, the AUC(0-inf) was determined as 22500 ng·h/mL, the MRT was 9.16 h and the bioavailability is 66.5%. In data set [3] (setting [6]), the half-life is 8.84 h, the Cmax came out at 1480 ng/mL and the Tmax turned out to be 4.67 h.
`CN(C)c1cc2nn([C@H]3CC[C@H](O)CC3)cc2cc1NC(=O)c1cccc(C(F)(F)F)n1` [MY-004-153] returned an inhibition at 5 min, 30 µM in data set [2] of 17.7%.
As for `COc1cc2nn([C@H]3CC[C@@](C)(O)CC3)cc2cc1NC(=O)c1cccc(C(F)(F)F)n1` [MY-004-126-2], the Mini-Ames result in data set [1] is listed as “negative”. Besides, in data set [2], the inhibition at 5 min, 30 µM came out at 10.1%. Moreover, the Cmax in data set [3] (setting [4]) came to 1430 ng/mL. For the same molecule, in data set [3] (setting [5]), the AUC(0-t) turned out to be 4080 ng·h/mL, the AUC(0-inf) is 4540 ng·h/mL, the MRT came out at 8.81 h and the clearance is 3.74 mL/min/kg. In addition, in data set [3] (setting [5]), the half-life is 7.59 h and the Vd amounted to 2.4 L/kg. Further, in data set [3] (setting [6]), the AUC(0-t) was found to be 15400 ng·h/mL, the AUC(0-inf) amounted to 35900 ng·h/mL, the MRT was determined as 10.3 h and the bioavailability is 75.8%. Also, in data set [3] (setting [6]), the half-life is 24.8 h, the Cmax came out at 1150 ng/mL and the Tmax stood at 4 h.
As to `CN(C)c1cc2nn([C@H]3C[C@H](C(C)(C)O)C3)cc2cc1NC(=O)c1cccc(C(F)(F)F)n1` [MY-004-089], the Cmax in data set [3] (setting [4]) is 1580 ng/mL. In data set [3] (setting [5]), the AUC(0-t) is 3390 ng·h/mL, the AUC(0-inf) came to 3510 ng·h/mL, the MRT stood at 5.2 h and the clearance was found to be 4.89 mL/min/kg. In addition, in data set [3] (setting [5]), the half-life is 5.5 h and the Vd is 2.26 L/kg. Moreover, in data set [3] (setting [7]), the AUC(0-t) came out at 3000 ng·h/mL, the AUC(0-inf) amounted to 3550 ng·h/mL, the MRT is 12.6 h and the bioavailability turned out to be 44.2%. In addition, in data set [3] (setting [7]), the half-life was 8.11 h, the Cmax turned out to be 227 ng/mL and the Tmax came to 4 h.
As for `COc1cc2nn([C@H]3CC[C@](C)(O)CC3)cc2cc1NC(=O)c1cccc(C(F)(F)F)n1` [MY-004-126-1], at CYP2C9, the IC50 is above 30 µM. In addition, in data set [2], the inhibition at 5 min, 30 µM was 12.8%. Also, in data set [3] (setting [4]), the Cmax stood at 1210 ng/mL. In data set [3] (setting [5]), the AUC(0-t) came out at 3150 ng·h/mL, the AUC(0-inf) is 3250 ng·h/mL, the MRT was determined as 5.46 h and the clearance amounted to 5.14 mL/min/kg. Also, in data set [3] (setting [5]), the half-life was 5.25 h and the Vd came out at 2.34 L/kg. Also, in data set [3] (setting [6]), the AUC(0-t) turned out to be 11500 ng·h/mL, the AUC(0-inf) is 17700 ng·h/mL, the MRT is 22.4 h and the bioavailability turned out to be 73.1%. Further, in data set [3] (setting [6]), the half-life was 15.2 h, the Cmax amounted to 924 ng/mL and the Tmax was 4 h.
